Patent publication US8937048B2, “Anti-angiogenic compounds” (Covx Technologies Ireland, Limited, priority 2008, dated 2015)
Where a SMILES comes first, the peptide text is derived from it. Bridges are numbered along the chain shown (N, C = ends).

Molecular target: T1, recombinant human VEGF165 (Homo sapiens, UniProt P15692)
T1 sequence (P15692 27-191 isoform P15692-4): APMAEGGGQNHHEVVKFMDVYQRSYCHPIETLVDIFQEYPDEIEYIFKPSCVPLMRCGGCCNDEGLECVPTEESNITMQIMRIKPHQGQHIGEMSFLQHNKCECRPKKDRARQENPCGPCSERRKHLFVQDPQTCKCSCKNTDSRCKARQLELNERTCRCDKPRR
Assay: VEGF peptide binding assay (competition ELISA, VEGF165 binding to coated VEGFR2/Fc)
Outline: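 VEGFR2/Fc was coated, and peptides (0.128–10,000 nM, N-acetyl, C-amide) were preincubated with 25 ng/ml human VEGF165 and added for 1 h at RT. Bound VEGF was detected with biotinylated anti-VEGF, streptavidin-HRP and TMB at OD450. IC50 came from sigmoid dose-response fits of OD450 versus concentration.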

Structure (SMILES): CC[C@H](C)[C@@H]1NC(=O)[C@H](CC(=O)O)NC(=O)[C@@H](NC(=O)[C@H](CC(N)=O)NC(=O)[C@@H]2CCCN2C(=O)[C@H](CCC(=O)O)NC(=O)[C@@H](NC(C)=O)C(C)C)CSSC[C@@H](C(=O)N[C@@H](Cc2ccccc2)C(=O)N[C@@H](CCC(=O)O)C(=O)N[C@@H](CCCNC(=N)N)C(=O)N[C@@H](CC(C)C)C(=O)N[C@@H](CCSC)C(=O)N[C@@H](CCCNC(=N)N)C(=O)N[C@@H](CCC(=O)O)C(=O)N[C@@H](CC(C)C)C(N)=O)NC(=O)[C@H](CCC(=O)O)NC(=O)[C@H](Cc2c[nH]c3ccccc23)NC(=O)[C@H](C(C)C)NC(=O)[C@H](Cc2c[nH]c3ccccc23)NC(=O)[C@H](CCSC)NC(=O)[C@H](C(C)C)NC(=O)[C@H](Cc2c[nH]cn2)NC1=O [Compound 63, VEPNCDIHVMWVWECFERLMREL] (Ac-VEPNCDIHVMWVWECFERLMREL-NH2; disulfide 5-15 (inferred))
- IC50: 24 nM

Structure (SMILES): CC[C@H](C)[C@@H]1NC(=O)[C@H](CC(=O)O)NC(=O)[C@@H](NC(=O)[C@H](CC(N)=O)NC(=O)[C@@H]2CCCN2C(=O)[C@H](CCC(=O)O)NC(=O)[C@@H](NC(C)=O)C(C)C)CSSC[C@@H](C(=O)N[C@@H](Cc2ccccc2)C(=O)N[C@@H](CCC(=O)O)C(=O)N[C@@H](CCCNC(=N)N)C(=O)N[C@@H](CC(C)C)C(N)=O)NC(=O)[C@H](CCC(=O)O)NC(=O)[C@H](Cc2c[nH]c3ccccc23)NC(=O)[C@H](C(C)C)NC(=O)[C@H](Cc2c[nH]c3ccccc23)NC(=O)[C@H](CCSC)NC(=O)[C@H](C(C)C)NC(=O)[C@H](Cc2c[nH]cn2)NC1=O [Compound 64, V-E-P-N-C-D-I-H-V-M-W-V-W-E-C-F-E-R-L-] (Ac-VEPNCDIHVMWVWECFERL-NH2; disulfide 5-15 (inferred))
- IC50: 24 nM

Structure (SMILES): CC[C@H](C)[C@@H]1NC(=O)[C@H](CC(=O)O)NC(=O)[C@@H](NC(=O)[C@H](CC(N)=O)NC(=O)[C@@H]2CCCN2C(=O)[C@H](CCC(=O)O)NC(=O)[C@@H](NC(C)=O)C(C)C)CSSC[C@@H](C(=O)N[C@@H](Cc2ccccc2)C(=O)N[C@@H](CCC(=O)O)C(=O)N[C@@H](CCCNC(=N)N)C(=O)N[C@@H](CC(C)C)C(=O)N[C@@H](CCSC)C(=O)N[C@@H](CCCCN)C(=O)N[C@@H](CCC(=O)O)C(=O)N[C@@H](CC(C)C)C(N)=O)NC(=O)[C@H](CCC(=O)O)NC(=O)[C@H](Cc2c[nH]c3ccccc23)NC(=O)[C@H](C(C)C)NC(=O)[C@H](Cc2c[nH]c3ccccc23)NC(=O)[C@H](CCSC)NC(=O)[C@H](C(C)C)NC(=O)[C@H](Cc2c[nH]cn2)NC1=O [Compound 65, VEPNCDIHVMWVWECFERLMKEL] (Ac-VEPNCDIHVMWVWECFERLMKEL-NH2; disulfide 5-15 (inferred))
- IC50: 18 nM

Structure (SMILES): CC[C@H](C)[C@@H]1NC(=O)[C@H](CC(=O)O)NC(=O)[C@@H](NC(=O)[C@H](CC(N)=O)NC(=O)[C@@H]2CCCN2C(=O)[C@H](CCC(=O)O)NC(=O)[C@@H](NC(C)=O)C(C)C)CSSC[C@@H](C(=O)N[C@@H](Cc2ccccc2)C(=O)N[C@@H](CCC(=O)O)C(=O)N[C@@H](CCCNC(=N)N)C(=O)N[C@@H](CC(C)C)C(=O)N[C@@H](Cc2ccc(O)cc2)C(=O)NCC(=O)N2CCC[C@H]2C(=O)N[C@@H](Cc2c[nH]c3ccccc23)C(N)=O)NC(=O)[C@H](CCC(=O)O)NC(=O)[C@H](Cc2c[nH]c3ccccc23)NC(=O)[C@H](C(C)C)NC(=O)[C@H](Cc2c[nH]c3ccccc23)NC(=O)[C@H](CCSC)NC(=O)[C@H](C(C)C)NC(=O)[C@H](Cc2c[nH]cn2)NC1=O [Compound 66, VEPNCDIHVMWVWECFERLYGPW] (Ac-VEPNCDIHVMWVWECFERLYGPW-NH2; disulfide 5-15 (inferred))
- IC50: 18.7 nM

Structure (SMILES): CC[C@H](C)[C@@H]1NC(=O)[C@H](CC(=O)O)NC(=O)[C@@H](NC(=O)[C@H](CC(N)=O)NC(=O)[C@@H]2CCCN2C(=O)[C@H](CCC(=O)O)NC(=O)[C@@H](NC(C)=O)C(C)C)CSSC[C@@H](C(=O)N[C@@H](Cc2ccccc2)C(=O)N[C@@H](CCC(=O)O)C(=O)N[C@@H](CCCNC(=N)N)C(=O)N[C@@H](CC(C)C)C(=O)N[C@@H](CC(C)C)C(=O)N[C@@H](CCCCN)C(N)=O)NC(=O)[C@H](CCC(=O)O)NC(=O)[C@H](Cc2c[nH]c3ccccc23)NC(=O)[C@H](C(C)C)NC(=O)[C@H](Cc2c[nH]c3ccccc23)NC(=O)[C@H](CCSC)NC(=O)[C@H](C(C)C)NC(=O)[C@H](Cc2c[nH]cn2)NC1=O [Compound 67, VEPNCDIHVMWVWECFERLLK] (Ac-VEPNCDIHVMWVWECFERLLK-NH2; disulfide 5-15 (inferred))
- IC50: 10.1 nM

Structure (SMILES): CC[C@H](C)[C@@H]1NC(=O)[C@H](CC(=O)O)NC(=O)[C@@H](NC(=O)[C@H](CC(N)=O)NC(=O)[C@@H]2CCCN2C(=O)[C@H](CCC(=O)O)NC(=O)[C@@H](NC(C)=O)C(C)C)CSSC[C@@H](C(=O)N[C@@H](Cc2ccccc2)C(=O)N[C@@H](CCC(=O)O)C(=O)N[C@@H](CCCNC(=N)N)C(=O)N[C@@H](CC(C)C)C(=O)N[C@@H](CC(C)C)C(=O)N[C@@H](CCCCNC(C)=O)C(N)=O)NC(=O)[C@H](CCC(=O)O)NC(=O)[C@H](Cc2c[nH]c3ccccc23)NC(=O)[C@H](C(C)C)NC(=O)[C@H](Cc2c[nH]c3ccccc23)NC(=O)[C@H](CCSC)NC(=O)[C@H](C(C)C)NC(=O)[C@H](Cc2c[nH]cn2)NC1=O [Compound 68, VEPNCDIHVMWVWECFERLL-(Kac)] (Ac-VEPNCDIHVMWVWECFERLLK(Ac)-NH2; disulfide 5-15 (inferred))
- IC50: 10 nM

Structure (SMILES): CC[C@H](C)[C@@H]1NC(=O)[C@H](CC(=O)O)NC(=O)[C@@H](NC(=O)[C@H](CC(N)=O)NC(=O)[C@@H]2CCCN2C(=O)[C@H](CCC(=O)O)NC(=O)[C@@H](NC(C)=O)C(C)C)CSSC[C@@H](C(=O)N[C@@H](Cc2ccccc2)C(=O)N[C@@H](CCC(=O)O)C(=O)N[C@@H](CCCNC(=N)N)C(=O)N[C@@H](CC(C)C)C(=O)N[C@@H](Cc2ccc(O)cc2)C(=O)NCC(=O)N[C@@H](CCC(=O)O)C(=O)N[C@@H](Cc2ccccc2)C(N)=O)NC(=O)[C@H](CCC(=O)O)NC(=O)[C@H](Cc2c[nH]c3ccccc23)NC(=O)[C@H](C(C)C)NC(=O)[C@H](Cc2c[nH]c3ccccc23)NC(=O)[C@H](CCSC)NC(=O)[C@H](C(C)C)NC(=O)[C@H](Cc2c[nH]cn2)NC1=O [Compound 70, VEPNCDIHVMWVWECFERLYGEF] (Ac-VEPNCDIHVMWVWECFERLYGEF-NH2; disulfide 5-15 (inferred))
- IC50: 9.3 nM

Structure (SMILES): CC[C@H](C)[C@@H]1NC(=O)[C@H](CC(=O)O)NC(=O)[C@@H](NC(=O)[C@H](CC(N)=O)NC(=O)[C@@H]2CCCN2C(=O)[C@H](CCC(=O)O)NC(=O)[C@@H](NC(C)=O)C(C)C)CSSC[C@@H](C(=O)N[C@@H](Cc2ccccc2)C(=O)N[C@@H](CCC(=O)O)C(=O)N[C@@H](CCCNC(=N)N)C(=O)N[C@@H](CC(C)C)C(=O)N[C@@H](Cc2ccc(O)cc2)C(=O)NCC(=O)N[C@@H](CC(C)C)C(=O)N[C@@H](CO)C(N)=O)NC(=O)[C@H](CCC(=O)O)NC(=O)[C@H](Cc2c[nH]c3ccccc23)NC(=O)[C@H](C(C)C)NC(=O)[C@H](Cc2c[nH]c3ccccc23)NC(=O)[C@H](CCSC)NC(=O)[C@H](C(C)C)NC(=O)[C@H](Cc2c[nH]cn2)NC1=O [Compound 71, VEPNCDIHVMWVWECFERLYGLS] (Ac-VEPNCDIHVMWVWECFERLYGLS-NH2; disulfide 5-15 (inferred))
- IC50: 5.4 nM
